Data set [1] concerns Leaf. Nature of the data set: Drug recovery in leaf of Secale cereale (rye) at 50 ng/g by LC-MS analysis.
Data set [2] deals with Leaf. Nature of the data set: Drug recovery in leaf of Secale cereale (rye) at 5 ng/g by LC-MS analysis.

With `O=C(O)/C=C/c1ccc(O)cc1` [COUMARIC ACID], the Drug recovery in data set [1] was determined as 81%; in data set [2], 79%.
The like results for `COc1ccc(C2COc3cc(O)cc(O)c3C2=O)cc1` (configuration not stated) [DIHYDROBIOCHANIN A] were, in that order, 76% and 104%.
For `O=c1c(-c2ccc(O)cc2)coc2cc(O)cc(O)c12` [GENISTEIN], in that order: 65% and 81%.
In turn, `COc1ccc(-c2coc3cc(O)cc(O)c3c2=O)cc1O` [PRATENSEIN] registered a Drug recovery in data set [2] of 98%.

The values are drawn from ChEMBL document CHEMBL3046081, “Phytotoxic effect, uptake, and transformation of biochanin A in selected weed species” (J Agric Food Chem, 2012).
